≈ marks a conversion by molar mass, not a printed value.
Legend:
[1] = test system: VanB vancomycin-resistant E. faecium (10); assay: MIC broth microdilution, VanB E. faecium; settings: E. faecium, VanB (10)
VanC enterococci (22) = assay: MIC broth microdilution, vanC-carrying enterococci; settings: VanC enterococci (22)
[2] = test system: vancomycin-susceptible E. faecium (21); assay: MIC broth microdilution, vancomycin-susceptible E. faecium; settings: E. faecium, vancomycin-susceptible (21)
[3] = test system: vancomycin-susceptible E. faecalis (23); assay: MIC broth microdilution, vancomycin-susceptible E. faecalis; settings: E. faecalis, vancomycin-susceptible (23)
[4] = test system: methicillin-resistant S. aureus (MRSA, 22); assay: MIC broth microdilution, MRSA; settings: for MIC 50% / MIC 90%: MRSA (22)
[5] = test system: vancomycin-resistant S. aureus (VRSA, 6); assay: MIC broth microdilution, VRSA
B. anthracis Sterne 105 = assay type: cell-based, Bacillus anthracis; settings: Tween 80 0.002% medium, serum condition not stated
[6] = test system: vancomycin-intermediate S. aureus (VISA, 5); assay: MIC broth microdilution, VISA
[7] = test system: VanA vancomycin-resistant E. faecalis (11); assay: MIC broth microdilution, VanA E. faecalis; settings: E. faecalis, VanA (11)
S. pneumoniae (22) = assay: MIC broth microdilution, S. pneumoniae; settings: for MIC 50% / MIC 90%: S. pneumoniae (22), MHB + lysed horse blood
[8] = test system: Staphylococcus aureus (65 strains); assay: MIC broth microdilution, S. aureus all isolates; settings: S. aureus (65), all resistance subsets
[9] = test system: β-hemolytic streptococci (23); assay: MIC broth microdilution, β-hemolytic streptococci; settings: for fold more potent than teicoplanin and daptomycin / fold more potent than vancomycin: β-hemolytic streptococci; for MIC 50% / MIC 90%: β-hemolytic streptococci (23), MHB + lysed horse blood
[10] = test system: heterogeneous VISA (hVISA, 10); assay: MIC broth microdilution, hVISA
[11] = test system: methicillin-susceptible S. aureus (MSSA, 22); assay: MIC broth microdilution, MSSA; settings: for MIC 50% / MIC 90%: MSSA (22)
[12] = test system: VanB vancomycin-resistant E. faecalis (12); assay: MIC broth microdilution, VanB E. faecalis; settings: E. faecalis, VanB (12)
[13] = test system: Staphylococcus epidermidis (43 strains); assay: MIC broth microdilution, S. epidermidis; settings: S. epidermidis (43)
[14] = test system: VanA vancomycin-resistant E. faecium (10); assay: MIC broth microdilution, VanA E. faecium; settings: E. faecium, VanA (10)
S. aureus ATCC 25923 = assay: Neutropenic murine thigh infection model; settings: for AUCc-t (AUC difference between control and treated animals): 24 h time kill; for in vivo efficacy against S. aureus (in words): neutropenic soft tissue infection model
[15] = 1 mg/kg single intraperitoneal dose
[16] = 4 mg/kg single intraperitoneal dose
[17] = 16 mg/kg single intraperitoneal dose

Which results are given for `CCCCCCCCCCNCCNC1(C)CC(OC2C(Oc3c4cc5cc3Oc3ccc(cc3Cl)C(O)C3NC(=O)C(NC(=O)C5NC(=O)C(CC(N)=O)NC(=O)C(NC(=O)C(CC(C)C)NC)C(O)c5ccc(c(Cl)c5)O4)c4ccc(O)c(c4)-c4c(O)cc(O)cc4C(C(=O)NCCOCCOCCN)NC3=O)OC(CO)C(O)C2O)OC(C)C1O` (stereo not shown) [Compound 2]?
MIC 50% [1]: 0.015 µg/mL (≈ 0.00851 µM); MIC 90% [1]: 0.03 µg/mL (≈ 0.017 µM); MIC 50% (VanC enterococci (22)): 0.06 µg/mL (≈ 0.034 µM); MIC 90% (VanC enterococci (22)): 0.12 µg/mL (≈ 0.0681 µM); MIC 50% [2]: 0.015 µg/mL (≈ 0.00851 µM); MIC 90% [2]: 0.03 µg/mL (≈ 0.017 µM); MIC 50% [3]: 0.06 µg/mL (≈ 0.034 µM); MIC 90% [3]: 0.12 µg/mL (≈ 0.0681 µM); modal MIC ([4]; MRSA): 0.06 µg/mL; MIC 50% [4]: 0.06 µg/mL (≈ 0.034 µM); MIC 90% [4]: 0.12 µg/mL (≈ 0.0681 µM); MIC 50% [5]: 1 µg/mL (≈ 0.567 µM); MIC (B. anthracis Sterne 105): 0.03 µg/mL (≈ 0.017 µM); MIC 50% [6]: 0.12 µg/mL (≈ 0.0681 µM); MIC 50% [7]: 2 µg/mL (≈ 1.13 µM); MIC 90% [7]: 4 µg/mL (≈ 2.27 µM); fold more potent than linezolid (S. pneumoniae (22); S. pneumoniae): 32 fold; MIC 50% (S. pneumoniae (22)): 0.015 µg/mL; MIC 90% (S. pneumoniae (22)): 0.03 µg/mL; MIC 50% [8]: 0.06 µg/mL (≈ 0.034 µM); MIC 90% [8]: 0.12 µg/mL (≈ 0.0681 µM); fold more potent than teicoplanin and daptomycin [9]: two- to four; fold more potent than vancomycin [9]: four- to eight; MIC 50% [9]: 0.03 µg/mL; MIC 90% [9]: 0.12 µg/mL; MIC 50% [10]: 0.06 µg/mL (≈ 0.034 µM); MIC 90% [10]: 0.12 µg/mL (≈ 0.0681 µM); modal MIC ([11]; MSSA): 0.03 µg/mL; MIC 50% [11]: 0.03 µg/mL (≈ 0.017 µM); MIC 90% [11]: 0.12 µg/mL (≈ 0.0681 µM); MIC 50% [12]: 0.06 µg/mL (≈ 0.034 µM); MIC 90% [12]: 0.12 µg/mL (≈ 0.0681 µM); MIC 50% [13]: 0.03 µg/mL (≈ 0.017 µM); MIC 90% [13]: 0.06 µg/mL (≈ 0.034 µM); MIC 50% [14]: 1 µg/mL (≈ 0.567 µM); MIC 90% [14]: 2 µg/mL (≈ 1.13 µM); Max Kill (maximum decrease from initial infection level) (S. aureus ATCC 25923; [15]): −0.28 Log10 CFU/thigh; AUCc-t (AUC difference between control and treated animals) (S. aureus ATCC 25923; [15]): 29 (Log10 CFU/thigh)/hr; Max Kill (maximum decrease from initial infection level) (S. aureus ATCC 25923; [16]): −1.01 Log10 CFU/thigh; AUCc-t (AUC difference between control and treated animals) (S. aureus ATCC 25923; [16]): 40.1 (Log10 CFU/thigh)/hr; Max Kill (maximum decrease from initial infection level) (S. aureus ATCC 25923; [17]): −1.13 Log10 CFU/thigh; AUCc-t (AUC difference between control and treated animals) (S. aureus ATCC 25923; [17]): 55 (Log10 CFU/thigh)/hr; organism reduction across doses (S. aureus ATCC 25923; 1, 4 and 16 mg/kg intraperitoneal): organism reduction over the entire dose range; in vivo efficacy against S. aureus (in words) (S. aureus ATCC 25923): bactericidal characteristics and prolonged in vivo activity

`CNC(CC(C)C)C(=O)NC1C(=O)NC(CC(N)=O)C(=O)NC2C(=O)NC3C(=O)NC(C(=O)NC(C(=O)NCCOCCOCCOCCN)c4cc(O)c(CNCCOCCOCCOCCN)c(O)c4-c4cc3ccc4O)C(O)c3ccc(c(Cl)c3)Oc3cc2cc(c3OC2OC(CO)C(O)C(O)C2OC2CC(C)(NCc3ccc(-c4ccc(Cl)cc4)cc3)C(O)C(C)O2)Oc2ccc(cc2Cl)C1O` (stereo not shown) [Compound 24] was tested. Which MIC (B. anthracis Sterne 105) did it give?
Its MIC is 0.03 µg/mL (≈ 0.0148 µM).

With `CNC(CC(C)C)C(=O)NC1C(=O)NC(CC(N)=O)C(=O)NC2C(=O)NC3C(=O)NC(C(=O)NC(C(=O)O)c4cc(O)c(CNCCOCCOCC[N+](C)(C)C)c(O)c4-c4cc3ccc4O)C(O)c3ccc(c(Cl)c3)Oc3cc2cc(c3OC2OC(CO)C(O)C(O)C2OC2CC(C)(NCc3ccc(OCc4ccc(Cl)c(Cl)c4)cc3)C(O)C(C)O2)Oc2ccc(cc2Cl)C1O` (stereo not shown) [Compound 29] as the compound, how does the “MIC 50%” value [1] read?
Its value is 0.06 µg/mL.

And the “MIC 90%” value [1]?
The value was 0.06 µg/mL.

And the “MIC 50%” value (VanC enterococci (22))?
The value was 0.12 µg/mL.

And the “MIC 90%” value (VanC enterococci (22))?
Its value is 0.5 µg/mL.

What about the “MIC 50%” value [2] of the same compound?
The value was 0.03 µg/mL.

And the “MIC 90%” value [2]?
Its value is 0.06 µg/mL.

And the “MIC 50%” value [3]?
The value was 0.12 µg/mL.

And the “MIC 90%” value [3]?
The value was 0.12 µg/mL.

And the “MIC 50%” value [4]?
The value was 0.06 µg/mL.

What about the “MIC 90%” value [4] of the same compound?
The value was 0.12 µg/mL.

What about the “MIC 50%” value [5] of the same compound?
Its value is 4 µg/mL.

What about the MIC (B. anthracis Sterne 105) of the same compound?
The MIC was 0.03 µg/mL.

And the “MIC 50%” value [6]?
The value was 0.25 µg/mL.

And the “MIC 50%” value [7]?
The value was 4 µg/mL.

What about the “MIC 90%” value [7] of the same compound?
Its value is 4 µg/mL.

And the “MIC 50%” value (S. pneumoniae (22))?
Its value is 0.03 µg/mL.

And the “MIC 90%” value (S. pneumoniae (22))?
Its value is 0.06 µg/mL.

And the “MIC 50%” value [8]?
Its value is 0.06 µg/mL.

What about the “MIC 90%” value [8] of the same compound?
The value was 0.25 µg/mL.

What about the “fold more potent than teicoplanin and daptomycin” value [9] of the same compound?
Its value is “two- to four”.

And the “fold more potent than vancomycin” value [9]?
Its value is “four- to eight”.

What about the “MIC 50%” value [9] of the same compound?
Its value is 0.03 µg/mL.

And the “MIC 90%” value [9]?
Its value is 0.12 µg/mL.

And the “MIC 50%” value [10]?
The value was 0.06 µg/mL.

And the “MIC 90%” value [10]?
Its value is 0.12 µg/mL.

And the “MIC 50%” value [11]?
Its value is 0.06 µg/mL.

What about the “MIC 90%” value [11] of the same compound?
The value was 0.12 µg/mL.

What about the “MIC 50%” value [12] of the same compound?
The value was 0.12 µg/mL.

And the “MIC 90%” value [12]?
Its value is 0.12 µg/mL.

And the “MIC 50%” value [13]?
The value was 0.03 µg/mL.

And the “MIC 90%” value [13]?
Its value is 0.06 µg/mL.

What about the “MIC 50%” value [14] of the same compound?
Its value is 1 µg/mL.

And the “MIC 90%” value [14]?
The value was 2 µg/mL.

And the “Max Kill (maximum decrease from initial infection level)” value (S. aureus ATCC 25923; [15])?
The value was 0.08 Log10 CFU/thigh.

And the “AUCc-t (AUC difference between control and treated animals)” value (S. aureus ATCC 25923; [15])?
The value was 17.7 (Log10 CFU/thigh)/hr.

What about the “Max Kill (maximum decrease from initial infection level)” value (S. aureus ATCC 25923; [16]) of the same compound?
The value was 0.07 Log10 CFU/thigh.

What about the “AUCc-t (AUC difference between control and treated animals)” value (S. aureus ATCC 25923; [16]) of the same compound?
The value was 22.6 (Log10 CFU/thigh)/hr.

What about the “Max Kill (maximum decrease from initial infection level)” value (S. aureus ATCC 25923; [17]) of the same compound?
Its value is −1.05 Log10 CFU/thigh.

What about the “AUCc-t (AUC difference between control and treated animals)” value (S. aureus ATCC 25923; [17]) of the same compound?
The value was 45.2 (Log10 CFU/thigh)/hr.

And the “in vivo efficacy against S. aureus (in words)” value (S. aureus ATCC 25923)?
The value was “bactericidal characteristics and prolonged in vivo activity”.
